Results: patent US20230131899A1, “INHIBITORS OF MICROBIALLY INDUCED AMYLOID” (Axial Therapeutics, Inc., priority 2020, published 2023)
Where two headings read alike, the source gives them in different places.

How the values were obtained:
[1] = molecular target: T1, E. coli CsgA (Escherichia coli, UniProt P28307); assay: In vitro ThioflavinT assay of CsgA aggregation (CsgA ThT Assay); type: biochemical; conditions: for remaining activity at 25 µM: compound 25 μM; for remaining activity at 100 µM: compound 100 μM
T1 construct: made in house; host or cells: E. coli NEB 3016 slyD::kan, pET11d
T1 sequence (P28307 23-151): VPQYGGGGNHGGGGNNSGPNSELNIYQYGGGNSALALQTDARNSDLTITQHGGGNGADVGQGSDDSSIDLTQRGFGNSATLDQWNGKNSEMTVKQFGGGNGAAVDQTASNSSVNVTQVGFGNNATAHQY
How it was run: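 Purified C-terminal His-tagged CsgA, monomerised by desalting and 30-kDa filtration, at 2-20 μM with 20-40 μM ThT in 50 mM potassium phosphate pH 7.3, 1% DMSO, compounds 3.125-200 uM; room temperature, fluorescence (ex 438/em 495 nm) read every 15 min. Background-subtracted signal expressed as percent inhibition versus vehicle at 6-6.5 or 8-9 h, or as percent control AUC.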

[2] = tested on: CsgA gene expression (csgBAC promoter-GFP reporter) in E. coli UTI89; assay: In vitro live cell fluorescent reporter assay of CsgA transcription (Reporter Assay); type: cell-based; conditions: Escherichia coli
How it was run: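 Compounds at 0.14–100 μM (1% DMSO final) incubated 20 h at 27 °C in YESCA broth with UTI89 carrying a single-copy GFP reporter under the csgBAC intergenic promoter region, inoculum OD600 0.003. Fluorescence normalized to vehicle wells gave IC50 and 50%-of-vehicle concentration; OD600 reduction >10% flagged growth impact.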

[3] = read-out: CsgA ThT Assay (10 μM CsgA) % Control AUC at 1005 minutes, 25 μM (activity range), CsgA 10 μM, black plates, 1005 minutes, class symbol
[4] = read-out: CsgA ThT Assay (10 μM CsgA) % Control AUC at 1005 minutes, 25 μM, mean AUC as % of DMSO control, CsgA 10 μM, black plates, 1005 minutes
[5] = read-out: CsgA ThT Assay (10 μM CsgA) % Control AUC at 1005 minutes, 100 μM (activity range), CsgA 10 μM, black plates, 1005 minutes, class symbol
[6] = read-out: CsgA ThT Assay (10 μM CsgA) % Control AUC at 1005 minutes, 100 μM, mean AUC as % of DMSO control, CsgA 10 μM, black plates, 1005 minutes
[7] = read-out: Reporter Assay Abs IC50 (activity range), median Abs IC50 in the CsgA reporter assay, class symbol
[8] = read-out: Reporter Assay Abs IC50 (μM), median Abs IC50 in the CsgA reporter assay, N/A = maximum expression reduction is <50% of control
[9] = read-out: CsgA ThT Assay (2 μM CsgA) % Control Bmax 25 μM, activity range, class symbol, CsgA 2 μM, white plates
[10] = read-out: CsgA ThT Assay (2 μM CsgA) % Control Bmax 25 μM, mean Bmax as percentage of DMSO control, CsgA 2 μM, white plates
[11] = read-out: CsgA ThT Assay (2 μM CsgA) % Control Bmax 100 μM, activity range, class symbol, CsgA 2 μM, white plates
[12] = read-out: CsgA ThT Assay (2 μM CsgA) % Control Bmax 100 μM, mean Bmax as percentage of DMSO control, CsgA 2 μM, white plates
[13] = read-out: Reporter Assay Abs IC50, activity range, class symbol

Structure (SMILES) | remaining activity at 25 µM [1, 3] | remaining activity at 25 µM [1, 4] | remaining activity at 100 µM [1, 5] | remaining activity at 100 µM [1, 6] | IC50 [2, 7] | IC50 [2, 8] | remaining activity at 25 µM [1, 9] | remaining activity at 25 µM [1, 10] | remaining activity at 100 µM [1, 11] | remaining activity at 100 µM [1, 12] | IC50 [2, 13]
CN(C)Cc1c(Cc2cccc3ccccc23)c(-c2cccc(C(F)(F)F)c2)c2n(c1=O)C(C(=O)O)CS2(=O)=O (centres unmarked) [Compound 083, 6-((dimethylamino)methyl)-7-(naphthalen-1-ylmethyl)-5-oxo-8-(3-(trifluoromethyl)phenyl)-2,3-dihydro-5H-thiazolo[3,2-a]pyridine-3-carboxylic acid 1,1-dioxide] | > 60% | 102% | > 60% | 80% | > 10 µM | 14.6 µM |  |  |  |  | 
O=C(O)C1CN(Cc2ccccc2)c2c(-c3cccc(C(F)(F)F)c3)c(Cc3cncc4ccccc34)c(Cl)c(=O)n21 (centres unmarked) [Compound 210, 1-benzyl-6-chloro-7-(isoquinolin-4-ylmethyl)-5-oxo-8-(3-(trifluoromethyl)phenyl)-1,2,3,5-tetrahydroimidazo[1,2-a]pyridine-3-carboxylic acid] |  |  |  |  |  | 2.5 µM | > 60% | 79% | > 60% | 61% | 1.3 to 4.5 µM
C/C=C/c1c(Cc2cccc3ccccc23)c(-c2cccc(C(F)(F)F)c2)c2n(c1=O)C(C(=O)O)CN(C)S2(=O)=O (centres unmarked) [Compound 088, (E)-2-methyl-8-(naphthalen-1-ylmethyl)-6-oxo-7-(prop-1-en-1-yl)-9-(3-(trifluoromethyl)phenyl)-3,4-dihydro-2H,6H-pyrido[1,2-e][1,2,5]thiadiazine-4-carboxylic acid 1,1-dioxide] | 31 to 60% | 36% | 11 to 31% | 26% | 4.6 to 10 µM | 5.2 µM |  |  |  |  | 
CCCc1sc2c(-c3cccc(C(F)(F)F)c3)c(Cc3cccc4ccccc34)cc(=O)n2c1C(=O)O [Compound 061, 7-(naphthalen-1-ylmethyl)-5-oxo-2-propyl-8-(3-(trifluoromethyl)phenyl)-5H-thiazolo[3,2-a]pyridine-3-carboxylic acid] | 31 to 60% | 44% | 31 to 60% | 45% | 1.3 to 4.5 µM | 2.1 µM |  |  |  |  | 
COc1ccc(CN2C[C@H](C(=O)O)n3c(c(-c4cccc(C(F)(F)F)c4)c(Cc4cccc5ccccc45)cc3=O)S2(=O)=O)cc1 (single isomer, unassigned) [Compound 026b] | 31 to 60% | 47% |  |  | 1.3 to 4.5 µM | 2.8 µM |  |  |  |  | 
O=C(O)C1CN(Cc2ccccc2)c2c(-c3cccc(C(F)(F)F)c3)c(Cc3cccc4ncccc34)c(Cl)c(=O)n21 (centres unmarked) [Compound 211, 1-benzyl-6-chloro-5-oxo-7-(quinolin-5-ylmethyl)-8-(3-(trifluoromethyl)phenyl)-1,2,3,5-tetrahydroimidazo[1,2-a]pyridine-3-carboxylic acid] |  |  |  |  |  | 20.6 µM | > 60% | 85% | > 60% | 65% | > 10 µM
O=C(O)CC1CSc2c(-c3cccc(C(F)(F)F)c3)c(Cc3cccc4ccccc34)cc(=O)n21 (centres unmarked) [Compound 129, 2-(7-(naphthalen-1-ylmethyl)-5-oxo-8-(3-(trifluoromethyl)phenyl)-2,3-dihydro-5H-thiazolo[3,2-a]pyridin-3-yl)acetic acid] | 11 to 31% | 28% | > 60% | 61% | 1.3 to 4.5 µM | 3.4 µM |  |  |  |  | 
O=C(O)C1CN(C(CO)CO)S(=O)(=O)c2c(-c3cccc(C(F)(F)F)c3)c(Cc3cccc4ccccc34)cc(=O)n21 (centres unmarked) [Compound 106, 2-(1,3-dihydroxypropan-2-yl)-8-(naphthalen-1-ylmethyl)-6-oxo-9-(3-(trifluoromethyl)phenyl)-3,4-dihydro-2H,6H-pyrido[1,2-e][1,2,5]thiadiazine-4-carboxylic acid 1,1-dioxide] | > 60% | 95% | 31 to 60% | 38% | > 10 µM | 28.3 µM |  |  |  |  | 
COC(=O)C1CSc2c(-c3cccc(C(F)(F)F)c3)c(Cc3cccc4ccccc34)cc(=O)n21 (centres unmarked) [Compound 012, Methyl 7-(naphthalen-1-ylmethyl)-5-oxo-8-(3-(trifluoromethyl)phenyl)-2,3-dihydro-5H-thiazolo[3,2-a]pyridine-3-carboxylate] | > 60% | 108% | > 60% | 107% | 1.3 to 4.5 µM | 3.3 µM |  |  |  |  | 
CCCN1CC(C(=O)O)n2c(c(-c3cccc(C(F)(F)F)c3)c(Cc3cccc4ccccc34)c(C(C)C)c2=O)S1(=O)=O (centres unmarked) [Compound 125, 7-isopropyl-8-(naphthalen-1-ylmethyl)-6-oxo-2-propyl-9-(3-(trifluoromethyl)phenyl)-3,4-dihydro-2H,6H-pyrido[1,2-e][1,2,5]thiadiazine-4-carboxylic acid 1,1-dioxide] | 11 to 31% | 25% | 31 to 60% | 44% | 1.3 to 4.5 µM | 2.7 µM |  |  |  |  | 
O=C(O)CC1CS(=O)(=O)c2c(-c3cccc(C(F)(F)F)c3)c(Cc3cccc4ccccc34)cc(=O)n21 (centres unmarked) [Compound 130, 2-(7-(naphthalen-1-ylmethyl)-1,1-dioxido-5-oxo-8-(3-(trifluoromethyl)phenyl)-2,3-dihydro-5H-thiazolo[3,2-a]pyridin-3-yl)acetic acid] | 31 to 60% | 49% | 11 to 31% | 15% | > 10 µM | 14.8 µM |  |  |  |  | 
CN1CC(C(=O)O)n2c1c(-c1cccc(C(F)(F)F)c1)c(Cc1cccc3ccccc13)cc2=O (centres unmarked) [Compound 104, 1-methyl-7-(naphthalen-1-ylmethyl)-5-oxo-8-(3-(trifluoromethyl)phenyl)-1,2,3,5-tetrahydroimidazo[1,2-a]pyridine-3-carboxylic acid] | > 60% | 82% | 31 to 60% | 52% | 4.6 to 10 µM | 6 µM |  |  |  |  | 
O=C(O)C1CN(Cc2ccccc2)c2c(-c3cccc(C(F)(F)F)c3)c(CN3CCCc4ccccc43)c(Cl)c(=O)n21 (centres unmarked) [Compound 217, 1-benzyl-6-chloro-7-((3,4-dihydroquinolin-1 (2H)-yl)methyl)-5-oxo-8-(3-(trifluoromethyl)phenyl)-1,2,3,5-tetrahydroimidazo[1,2-a]pyridine-3-carboxylic acid] |  |  |  |  |  | 1.1 µM | > 60% | 65% |  |  | < 1.3 µM
O=C(O)C1CN(CCO)S(=O)(=O)c2c(-c3cccc(C(F)(F)F)c3)c(Cc3cccc4ccccc34)cc(=O)n21 (centres unmarked) [Compound 084, 2-(2-hydroxyethyl)-8-(naphthalen-1-ylmethyl)-6-oxo-9-(3-(trifluoromethyl)phenyl)-3,4-dihydro-2H,6H-pyrido[1,2-e][1,2,5]thiadiazine-4-carboxylic acid 1,1-dioxide] | 31 to 60% | 57% | 11 to 31% | 19% | > 10 µM | 27 µM |  |  |  |  | 
O=C(O)C1CS(=O)(=O)c2c(-c3cccc(C(F)(F)F)c3)c(C(F)(F)c3cccc4ccccc34)cc(=O)n21 (centres unmarked) [Compound 081, 7-(difluoro(naphthalen-1-yl)methyl)-5-oxo-8-(3-(trifluoromethyl)phenyl)-2,3-dihydro-5H-thiazolo[3,2-a]pyridine-3-carboxylic acid 1,1-dioxide] | 11 to 31% | 25% | 11 to 31% | 24% | > 10 µM | 16.5 µM |  |  |  |  | 
